According to paper PMC7558015, “Enhanced Intestinal Absorption and Pharmacokinetic Modulation of Berberine and Its Metabolites through the Inhibition of P-Glycoprotein and Intestinal Metabolism in Rats Using a Berberine Mixed Micelle Formulation” (Pharmaceutics, 2020):
Read-outs that look alike come from different tables or passages of the source. Each block holds one compound with its values, some of them ahead of it.

Assays:
Caco-2 cells [1] = assay: cells
Procedure: Caco-2 cells were seeded onto 96-well plates (BD-Corning, Corning, NY, USA) at a density of 1 × 10^5 cells/well, and cultured for 24 h at 37 °C in a 5% CO2 incubator. […] As a control group, berberine was treated at concentrations of 0, 1, 5, 10, 50, 100, 500, and 1000 μM. After 24 h of treatment, 20 μL of CellTiter 96 aqueous one solution from a cell proliferation assay kit (Promega, Madison, WI, USA) was added to the culture medium and incubated for 1 h. The absorbance rate of the reaction mixture was measured at 492 nm using an Infiniti M200Pro microplate reader (Tecan, Zurich, Switzerland).

[2] = Caco-2 permeability / transport of berberine and berberine formulation; format: in vitro ADME; conditions: human
Procedure: (§1) The cells were grown for 21 days and the culture medium was changed every 2 days. The integrity of the cell monolayers was evaluated prior to the transport experiments by measuring the transepithelial electrical resistance (TEER). […] To characterize the absorption transport of berberine in Caco-2 cells, the apical to basal (A to B) and basal to apical (B to A) transport of berberine was measured. […] The insert was then transferred to a well containing fresh HBSS medium every 15 min for 1 h. […] The transport medium on the apical side was replaced with 0.4 mL of fresh incubation medium every 15 min for 1 h. […] The insert was then transferred to a well containing fresh HBSS medium every 15 min for 1 h. […] The transport medium on the apical side was replaced with 0.4 mL of fresh incubation medium every 15 min for 1 h. […] The TEER values were monitored before and after the transport experiments with berberine formulation using an epithelial TEER meter (World Precision Instruments, Sarasota, FL, USA). A 100 μL aliquot of each sample was added to a 100 μL aliquot of ice-cold methanol containing 10 ng/mL of propranolol (IS). After vortexing and centrifuging the samples at 16,000× g for 10 min, the supernatant was injected directly into the LC-MS/MS system.

Caco-2 cells [3] = assay: as above; format: in vitro ADME
Procedure: as §1

[4] = Pharmacokinetic study after oral administration in rats; format: in vivo
Procedure: All the animal procedures were approved by the animal care and use committee of Kyungpook National University (Daegu, Korea; Approval No. KNU-2014-0097 and KNU-2019-0004). Male Sprague–Dawley rats weighing 250–270 g (8 weeks old) were purchased from Samtako Bio Korea (Osan, Kyunggido, Korea). When the rats arrived, they were housed with a 12 h light/dark cycle. Food and water were supplied ad libitum for 1 week prior to the animal experiment. […] The femoral vein, femoral arteries, and bile ducts of the rats were cannulated with polyethylene tubes (PE50 or PE10, Jungdo, Seoul, Korea) under anesthesia with isoflurane […] on the warming surgery table (YTK corp. Seoul, Korea), and the rats were remained on the warming table to maintain body temperature during the pharmacokinetic study. […] The prepared berberine suspension or berberine formulation was administered to rats via oral gavage. Blood samples (approximately 150 µL) were taken via the femoral artery at 0, 0.25, 0.5, 1, 1.5, 2, 4, 8, and 12 h after the oral administration, and pre-warmed saline (approximately 150 µL) was injected into the femoral vein to compensate the blood loss. The blood samples were centrifuged at 10,000× g for 1 min at 4 °C. Bile and urine samples were collected every 4 h for 12 h. After 12 h, the bile and urine samples were pooled and weighed. Aliquots (50 µL each) of plasma, urine, and bile samples were stored at −80 °C for the analysis of berberine and its metabolites. Plasma, urine, and bile samples (50 µL) were added to 150 µL of methanol containing propranolol (10 ng/mL), vortex-mixed for 15 min, and centrifuged at 10,000× g for 5 min at 4 °C. An aliquot (10 µL) of the supernatant was injected into the LC–MS/MS system. Agilent 6430 Triple Quad LC/MS system (Agilent, Wilmington, DE, USA) coupled with an Agilent 1260 series HPLC system was used for the analysis of berberine and its metabolites using the modified method of Kwon et al.. The separation was performed on a Synergy polar RP column (2.0 mm × 150 mm, 4 μm; Phenomenex, Torrance, CA, USA) using a gradient elution of the mobile phase that consisted of methanol and water with 0.1% formic acid at a flow rate of 0.2 mL/min. The composition of the mobile phase was as follows: 55% methanol for 0–2.5 min, 70% methanol for 3–5 min, 55% methanol for 5.3–12 min. The retention time was 3.01 min and 3.53 min for thalifendine-glucuronide and berberrubine-glucuronide, 6.30 min for thalifendine-sulfate, 7.79 min for berberine, 5.47 min for thalifendine, 6.38 min for berberrubine, and 2.53 min for propranolol. Mass spectra were recorded by electrospray ionization with a positive mode. Quantification was carried out using MRM at m/z 498.1 → 322.1 for thalifendine-glucuronide and berberrubine-glucuronide, m/z 402.0 → 322.1 for thalifendine-sulfate, m/z 336.1 → 320.0 for berberine, m/z 322.1 → 307.1 for thalifendine and berberrubine, and m/z 260.0 → 116.0 for propranolol. […] The thalifendine-glucuronide, berberrubine-glucuronide, and thalifendine-sulfate were relatively quantitated using berberine’s standard curve, since the authentic standard compounds were not available. The pharmacokinetic parameters were calculated by non-compartmental analysis using the WinNonlin Version 5.1 software (Pharsight, Certara, NJ, USA). Statistical analysis was performed using SPSS for Windows (version 24.0; IBM Corp., Armonk, NY, USA).

[5] = system: β-Glucuronidase and sulfatase; assay: Glucuronidase and sulfatase treatment (bile samples, stability of standards); format: in vitro ADME, Helix pomatia
Procedure: The reaction was terminated by adding 150 µL of ice-cold methanol containing propranolol (10 ng/mL), vortex-mixed for 5 min, and centrifuged at 10,000× g for 5 min at 4 °C. An aliquot (10 µL) of the supernatant was injected into the LC–MS/MS system.

[6] = system: human colon cancer HCT-8 cells; parameters: method as in PMID 23682426; conditions: cited from earlier work
[7] = parameters: method as in PMID 15531889; conditions: 32 hypercholesterolemic patients; cited from earlier work
[8] = rats; cited from earlier work
[9] = cited from earlier work
[10] = after Berberine Formulation PO 50 mg/kg, rats
[11] = after Berberine PO 50 mg/kg, rats
[12] = berberine formulation group compared with berberine group, PO 50 mg/kg, rats
[13] = male, Sprague–Dawley, rat, plasma, po, 50 mg/kg, plasma, after Berberine Formulation PO 50 mg/kg, rats
[14] = male, Sprague–Dawley, rat, plasma, po, 50 mg/kg, plasma, after Berberine Formulation PO 50 mg/kg, rats, read-out: Tmax (converted)
[15] = male, Sprague–Dawley, rat, plasma, po, 50 mg/kg, plasma, after Berberine PO 50 mg/kg, rats
[16] = male, Sprague–Dawley, rat, plasma, po, 50 mg/kg, plasma, after Berberine PO 50 mg/kg, rats, read-out: Tmax (converted)
[17] = 8 h of incubation, 37 °C, pH 5.0

IC50 (Caco-2 cells [1]; Homo sapiens, Caco-2, 24 h, read-out: IC50 (cell viability)): 933 µM | efflux ratio at 1 h, 1 μM ([2]; Caco-2, pH 7.4, 1 μM of berberine (alone or in formulation)): 14.1 | efflux ratio at 1 h, 100 μM ([2]; Caco-2, pH 7.4, 100 μM of berberine (alone or in formulation)): 7.5 | efflux ratio at 1 h, 10 μM ([2]; Caco-2, pH 7.4, berberine 10 μM, absence of CsA): 13.8 | efflux ratio at 1 h, 10 μM ([2]; Caco-2, pH 7.4, with cyclosporine A 25 μM, berberine 10 μM, presence of CsA 25 μM): 2.2 | efflux ratio (Caco-2 cells [3]; 100 μM of berberine (alone or in formulation)): 7.54 | CLint (P-gp-mediated efflux clearance) (Caco-2 cells [3]; Caco-2): 1.61 µL/min | Kd (absorptive diffusion clearance) (Caco-2 cells [3]; Caco-2): 0.03 µL/min | Xb,12h (amount excreted into bile for 12 h) [4, 10]: 992 ± 563 ng | Xu,12h (amount excreted into urine for 12 h) [4, 10]: 21,273 ± 12,517 ng | Xb,12h (amount excreted into bile for 12 h) [4, 11]: 323.7 ± 155.8 ng | Xu,12h (amount excreted into urine for 12 h) [4, 11]: 47.3 ± 30.1 ng | fold increase in AUC [4, 12]: 15.6 fold | AUC [4, 13]: 537 ng·h/mL | Cmax [4, 13]: 140 ± 29.4 ng/mL | Tmax [4, 14]: 0.583 h | AUC [4, 15]: 34.5 ng·h/mL | Cmax [4, 15]: 67 ± 66.9 ng/mL | Tmax [4, 16]: 0.5 h | stability after glucuronidase and sulfatase treatment [5, 17]: stable
Compound: COc1ccc2cc3[n+](cc2c1OC)CCc1cc2c(cc1-3)OCO2 [Berberine]
berberine concentration without (significant) cytotoxicity (Caco-2 cells [1]; human, 24 h): up to 100 μM | Vmax of B to A transport (Caco-2 cells [3]; Caco-2, 1–100 μM, Michaelis–Menten): 10.5 pmol/min | Km (Caco-2 cells [3]; Caco-2, 1–100 μM, Michaelis–Menten, read-out: Km of B to A transport): 6.5 µM | IC50 [6]: 470 µM | decrease of low-density lipoprotein (LDL) cholesterol [7]: 25% | decrease of triglycerides [7]: 35% | lowering of total cholesterol [7]: 29% | AUC post intraduodenal administration as share of AUC post intraportal vein administration [8]: ~0.5% | AUC post intraportal vein administration as share of intravenous AUC [8]: 72% | bioavailability [8]: 0.68% | oral dose disappeared during gastrointestinal first-pass elimination [8]: 99.5% | AUCliver ([9]; liver): 728.6 ng·h/mL | share of oral dose entering the portal vein ([9]; oral): 0.5% | share of oral dose metabolized in the enterocytes ([9]; oral): About 43.5% | share of oral dose not absorbed (P-gp-mediated efflux and self-aggregation) ([9]; oral): About 56% | AUCplasma ([9]; plasma): 86.4 ng·h/mL

Metabolic ratio (metabolite AUC to berberine AUC) [4, 10]: 0.00% | Xb,12h (amount excreted into bile for 12 h) [4, 10]: 0 ng | Xu,12h (amount excreted into urine for 12 h) [4, 10]: 67.78 ± 11.89 ng | Metabolic ratio (metabolite AUC to berberine AUC) [4, 11]: 0.04% | Xb,12h (amount excreted into bile for 12 h) [4, 11]: 0 ng | Xu,12h (amount excreted into urine for 12 h) [4, 11]: 22.80 ± 15.84 ng | AUC [4, 13]: 1.73 ng·h/mL | Cmax [4, 13]: 0.31 ± 0.18 ng/mL | Tmax [4, 14]: 0.917 h | AUC [4, 15]: 1.34 ng·h/mL | Cmax [4, 15]: 0.16 ± 0.03 ng/mL | Tmax [4, 16]: 4.17 h | degraded by glucuronidase and sulfatase treatment [5, 17]: more than 94%
Compound: COc1ccc2cc3[n+](cc2c1O)CCc1cc2c(cc1-3)OCO2 [Berberrubine]

Xb,12h (amount excreted into bile for 12 h) [4, 10]: 1871 ± 1092 ng | Xu,12h (amount excreted into urine for 12 h) [4, 10]: 7209 ± 2632 ng | Metabolic ratio (metabolite AUC to berberine AUC) [4, 11]: 0.09% | Xb,12h (amount excreted into bile for 12 h) [4, 11]: 281.5 ± 250.2 ng | Xu,12h (amount excreted into urine for 12 h) [4, 11]: 199.3 ± 76.1 ng | fold increase in AUC [4, 12]: 9.3 fold | AUC [4, 13]: 28.1 ng·h/mL | Cmax [4, 13]: 5.45 ± 3.12 ng/mL | Tmax [4, 14]: 10.7 h | AUC [4, 15]: 3.04 ng·h/mL | Cmax [4, 15]: 0.64 ± 0.19 ng/mL | Tmax [4, 16]: 7 h | stability after glucuronidase and sulfatase treatment [5, 17]: stable | increase of peak after glucuronidase and sulfatase treatment ([5]; rat bile collected 12 h after oral berberine): 10.6 fold
Compound: COc1c(O)ccc2cc3[n+](cc12)CCc1cc2c(cc1-3)OCO2 [Thalifendine]

Tmax ([4]; rat, in vivo, po, 50 mg/kg): 10.67 ± 2.31 h | fold increase in AUC ([4]; rat, in vivo, po, 50 mg/kg): 5.8 fold
Compound: thalifendine/berberrubine-sulfate
